This is an account of results in patent US10834926B2, “Insecticide properties of an extract of Sextonia rubra, and the constituents thereof” (Centre National de la Recherche Scientifique, priority 2014, dated 2020).

The assay concerns larvae of Aedes aegypti mosquitoes of the PAEA laboratory strain. The experiment in a line: Larvicidal in-cup trial on larvae, protocol adapted from WHO protocols. The following applies: for LD50 (SE) At 24 h / LD90 (SE) At 24 h / LD50 (SE) At 48 h / LD90 (SE) At 48 h: larval mortality, stage 3-4 larvae, PAEA strain; for LD50 (SE) At 24 h / LD90 (SE) At 24 h: 24 h after exposure; for LD50 (SE) At 48 h / LD90 (SE) At 48 h: 48 h after exposure; for minimum concentration corresponding to an effective amount (100% mortality): 100% mortality of larvae at 24 h. The class given is in vivo. From the text: For the purposes of the present invention, the expression “agent that is insecticidal/larvicidal with respect to a mosquito strain” is intended to mean a compound which results in the death of the mosquito larvae placed in the presence of this compound, for example in the context of an in-cup trial carried out according to the protocol recommended by the WHO (Guidelines for Laboratory and Field Testing of Mosquito Larvicides, WHO/CDS/WHOPES/GCDPP/2005.13, 2005), and for which, according to the WHO criteria for validating the tests, the mortality in the control batches is less than 20%.
The biological trials were carried out on larvae of Aedes aegypti mosquitoes of the PAEA laboratory strain sensitive to all insecticides. The protocol described hereinafter was adapted according to the WHO protocols.
This strain originating from French Polynesia has been maintained for about ten years at the insectarium of the Institut Pasteur of Guyana, in Cayenne. The mosquitoes were bred under natural conditions: temperature of 28° C.±2° C., humidity of 80%±20%, and daytime duration 12:12 h±20 min during the year. The Aedes aegypti eggs were kept dry on strips of blotting paper at the insectarium temperature. Hatching was carried out by placing these strips in water under a vacuum bell jar for at least 20 min. The larvae thus obtained were fed with yeast tablets. The larvae at growth stage 3-4 were then used for the extract and constituent activity tests. 100 larvae were transferred into plastic cups containing 99 ml of distilled water. Four cups per concentration (4×25 larvae) and at least 5 concentrations of each extract or constituent diluted in ethanol (crude extract of Sextonia rubra: 1, 2, 3, 4, 5, 7, 10, 25, 35, 50, 75, 100 μg/ml, rubrenolide: 0.1, 0.3, 0.5, 0.7, 1, 1.5, 2 μg/ml, rubrynolide: 0.1, 0.3, 0.5, 0.7, 1, 1.5, 4, 6, 8 μg/ml) were used to measure mortalities ranging from 0 to 100%. Each concentration of extract or of constituent (1 ml) was added to the cup. Controls were also carried out by adding 1 ml of ethanol to the cup. The mortality was evaluated at 24 h and 48 h after exposure of the larvae to the test product (crude extract, isolated constituent, ethanol).

On to `COP(=O)(OC)OC=C(Cl)Cl` [Dichlorvos, dichlorvos, reference compound], for which the “LD50 (SE) At 24 h” value is given as 0.039 (0.012) μg/ml, the “LD90 (SE) At 24 h” value is reported as 0.064 (0.026) μg/ml, the “LD50 (SE) At 48 h” value is given as 0.029 (0.012) μg/ml and the “LD90 (SE) At 48 h” value was 0.049 (0.020) μg/ml.

`C#CCCCCCCCC[C@@H]1C[C@H](C[C@@H](O)CO)C(=O)O1` [Rubrynolide, rubrynolide]: the “minimum concentration corresponding to an effective amount (100% mortality)” value turned out to be 17 µg/mL, the “LD50 (SE) At 24 h” value is recorded as 3.840 (0.018) μg/ml, the “LD90 (SE) At 24 h” value is 8.909 (0.031) μg/ml and the “LD50 (SE) At 48 h” value is given as 2.105 (0.023) μg/ml. The “LD90 (SE) At 48 h” value was 8.200 (0.043) μg/ml. Besides, the “LD50 (SE) At 24 h” value (listed as rubrynolide) was 3.8 µg/mL.

Turning to `C=CCCCCCCCC[C@@H]1C[C@H](C[C@@H](O)CO)C(=O)O1` [Rubrenolide, rubrenolide], the “minimum concentration corresponding to an effective amount (100% mortality)” value was found to be 2 µg/mL, the “LD50 (SE) At 24 h” value is reported as 0.605 (0.023) μg/ml, the “LD90 (SE) At 24 h” value is reported as 2.110 (0.041) μg/ml and the “LD50 (SE) At 48 h” value is 0.300 (0.024) μg/ml. The “LD90 (SE) At 48 h” value is reported as 0.788 (0.027) μg/ml. The “LD50 (SE) At 24 h” value (listed as rubrenolide) was 0.6 µg/mL.

As to spinosad [reference compound], the “LD50 (SE) At 24 h” value was 0.387 (0.025) μg/ml, the “LD90 (SE) At 24 h” value is reported as 1.118 (0.065) μg/ml, the “LD50 (SE) At 48 h” value is listed as 0.193 (0.020) μg/ml and the “LD90 (SE) At 48 h” value is 0.444 (0.028) μg/ml. Further, under “listed as spinosad”, the “LD50 (SE) At 24 h” value was found to be 0.4 µg/mL.
